From PubChem BioAssay (NCI)
Values joined by “and” are separate entries in the source; they are usually repeats but may differ in a detail not shown here. Identical values can stand only once.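 Interpolation was linear, between the two tested concentrations surrounding the appropriate level; five concentrations were tested over 48 hours in 96-well plates. Here, GI50 denotes the concentration required for 50% inhibition of growth. TGI denotes the concentration required for complete inhibition of growth.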

Experiments:
Assay in all cases: DTP human tumour cell line panel, 48 h
[1] = system: COLO 205 colon
[2] = system: DU-145 prostate
[3] = system: K-562 leukemia
[4] = system: KM12 colon
[5] = system: NCI-H23 lung
[6] = system: NCI-H460 lung
[7] = system: OVCAR-3 ovarian
[8] = system: SK-MEL-2 melanoma
[9] = system: SNB-75 CNS
[10] = system: UACC-62 melanoma

SMILES	TGI [1]	TGI [2]	TGI [3]	TGI [4]	TGI [5]	TGI [6]	TGI [7]	TGI [8]	TGI [9]	TGI [10]	GI50 [9]
CCOc1ccc(NC(=O)/C(=N\NC(C)(C)C)C2C(=O)Nc3ccccc3S2=O)cc1 (stereo not drawn)	> 100 µM	> 100 µM	> 100 µM	> 100 µM	> 100 µM	> 100 µM	> 100 µM	> 100 µM	> 100 µM	> 100 µM	–
COc1cc(C)cc2c1c(=O)c1ccccc1n2C	79.1 µM	> 100 µM	39.4 µM	> 100 µM	> 100 µM	> 100 µM	> 100 µM	49.9 µM	99.4 µM	62.5 µM	–
Cc1cc(-c2nc3ccccc3s2)ccc1N	> 76.9 µM	> 100 µM	> 86 µM	> 81.2 µM	> 80.8 µM	> 71.7 µM	> 86.6 µM	> 84 µM	> 88.8 µM	> 74.3 µM	–
Cc1cccc(CC(Cc2c(C)cccc2C(=O)O)C(=O)O)c1 (stereo not drawn)	> 100 µM	> 100 µM	> 100 µM	> 100 µM	> 100 µM	> 100 µM	> 100 µM	> 100 µM	> 100 µM	10.6 µM	–
CC1(C)CC23CC(C)(C)c4cccc(c42)OCc2ccc4ccc5ccc(nc5c4n2)COc2cccc1c23	> 50 µM	> 50 µM	> 50 µM	> 50 µM	–	> 50 µM	> 50 µM	> 50 µM	> 50 µM	> 50 µM	–
Cc1ccc(N=N/C(=N/NC(=O)c2cc(Cl)ccc2C(=O)c2ccccc2)c2ccc(N(CCC#N)CCC#N)cc2C)cc1	27.7 µM	51.8 µM	> 100 µM	> 100 µM	> 100 µM	13.6 µM	16.4 µM	28.2 µM	> 100 µM	36.2 µM	–
CC(C)(C)OC(=O)N(O)CCCn1cnc2c(N)ncnc21	> 100 µM	> 100 µM	> 100 µM	> 100 µM	> 100 µM	> 100 µM	> 100 µM	> 100 µM	> 100 µM	> 100 µM	–
CCCCOC(=O)NC(Nc1cccc(C(F)(F)F)c1)(C(F)(F)F)C(F)(F)F	> 100 µM	> 100 µM	> 100 µM	> 100 µM	> 100 µM	> 100 µM	> 100 µM	99.1 µM	> 100 µM	> 100 µM	–
CCOC(=O)C(C(=O)c1ccccc1C(=O)OC)=P(c1ccccc1)(c1ccccc1)c1ccccc1	> 10 µM	> 10 µM	> 10 µM	> 10 µM	> 10 µM	> 10 µM	> 10 µM	> 10 µM	> 10 µM	> 10 µM	–
CC(C)(C)c1cc2c(O)c(c1)Cc1cc(C(C#N)(Cc3ccc4ccccc4c3)Cc3ccc4ccccc4c3)cc(c1O)Cc1cc(C(C)(C)C)cc(c1O)Cc1cc(C(C#N)(Cc3ccc4ccccc4c3)Cc3ccc4ccccc4c3)cc(c1O)C2	> 100 µM	> 100 µM	> 100 µM	> 100 µM	> 100 µM	> 100 µM	> 100 µM	> 100 µM	> 100 µM	> 100 µM	–
Nc1ncc(Cl)c(NCC2(CO)CC(CCc3ccccc3)C2)n1 (stereo not drawn)	> 100 µM	> 100 µM	> 100 µM	> 100 µM	> 100 µM	> 100 µM	> 100 µM	> 100 µM	99.4 µM	> 100 µM	–
COc1cc(C(=O)O[C@@H]2[C@@H](OC(=O)c3cc(OC)c(OC)c(OC)c3)[C@@H](OC)O[C@@H]3CO[C@@H](c4ccccc4)O[C@@H]23)cc(OC)c1OC	> 100 µM	> 100 µM	> 100 µM	> 100 µM	> 100 µM	> 100 µM	> 100 µM	> 100 µM	> 100 µM	> 100 µM	–
CC1=CCC2C3(C)CCC2(C(C)C)C1C3 (stereo not drawn) (tested in a mixture with another compound)	65 µM	68 µM	99 µM	36.8 µM	> 100 µM	32.9 µM	30.2 µM	32.2 µM	77.5 µM	> 100 µM	–
CN(C)Cc1cc(C(C)(C)C)ccc1-c1ccc(C(C)(C)C)cc1CN(C)C	> 100 µM	> 100 µM	> 100 µM	> 100 µM	> 100 µM	> 100 µM	> 100 µM	> 100 µM	> 100 µM	> 100 µM	–
CCOC(=O)c1nc2ccccc2nc1Nc1ccc(OC)c(OC)c1	> 100 µM	> 100 µM	> 100 µM	> 100 µM	> 100 µM	> 100 µM	> 100 µM	> 100 µM	77 µM	> 100 µM	–
[N-]=[N+]=Nc1c(C=O)c(=O)n(-c2ccccc2)c2ccccc12	46.5 µM	> 100 µM	21.5 µM	> 100 µM	38 µM	> 100 µM	32.4 µM	80.5 µM	94.2 µM	28.8 µM	–
O=C(N/N=C/c1ccc([N+](=O)[O-])o1)c1ccc(C(=O)N/N=C/c2ccc([N+](=O)[O-])o2)cc1	94.7 µM	> 100 µM	> 100 µM	> 100 µM	> 100 µM	–	73.9 µM	> 100 µM	> 100 µM	> 100 µM	–

SMILES	TGI [1]	TGI [2]	TGI [3]	TGI [4]	TGI [5]	TGI [6]	TGI [7]	TGI [8]	TGI [9]	TGI [10]	GI50 [9]
Cc1cc(C)c2c(c1)CC1(Cc3c(C)ccc(C)c3C1=O)C2=O (stereo not drawn)	> 100 µM	> 100 µM	> 100 µM	> 100 µM	–	> 100 µM	> 100 µM	> 100 µM	> 100 µM	> 100 µM	–
COC(C(=O)C(O)C(C)O)C1CC2C=C3C=C(OC4CC(OC5CC(O)C(OC)C(C)O5)C(OC(C)=O)C(C)O4)C(C)C(=O)C3=C(O)C2=C(O)C1OC1CC(OC2CC(OC3CC(C)(O)C(OC(=O)C(C)C)C(C)O3)C(O)C(C)O2)C(O)C(C)O1 (stereo not drawn)	< 0.01 µM	< 0.01 µM	< 0.01 µM	< 0.01 µM	< 0.01 µM	–	–	< 0.01 µM	< 0.01 µM	< 0.01 µM	–
COC(=O)C1c2c(c3ccccc3n2C(=O)OC)CCN2CCC1C(S(=O)(=O)c1ccccc1)C2=O (stereo not drawn)	> 100 µM	> 100 µM	> 100 µM	> 100 µM	> 100 µM	> 100 µM	> 100 µM	> 100 µM	> 100 µM	> 100 µM	–
O=C(O)Cc1ccc(Oc2nc3ccccc3nc2C(=O)O)cc1	> 100 µM	> 100 µM	> 100 µM	> 100 µM	> 100 µM	> 100 µM	> 100 µM	> 100 µM	> 100 µM	> 100 µM	–
COc1cc(NC(C)=O)ccc1C(=O)NN1C(=O)C(Cl)C1c1ccco1 (stereo not drawn)	> 100 µM	> 100 µM	> 100 µM	> 100 µM	> 100 µM	–	> 100 µM	> 100 µM	> 100 µM	> 100 µM	–
Cn1c(-c2cccs2)cc(-c2cccs2)c1-c1ccco1	> 77.8 µM	> 100 µM	> 100 µM	22.9 µM	> 25 µM	> 100 µM	> 100 µM	> 100 µM	> 100 µM	> 100 µM	–
Brc1c(C#CCC(c2ccccc2)(c2ccccc2)c2ccccc2)ccc(C#CCC(c2ccccc2)(c2ccccc2)c2ccccc2)c1Br	> 100 µM	> 100 µM	> 100 µM	> 100 µM	> 100 µM	> 100 µM	> 100 µM	> 100 µM	> 100 µM	> 100 µM	–
Cc1ccc2c(sc(-c3ccc4c(c3)sc(-c3ccc5c(c3)sc(-c3ccc(N(C)C)cc3)[n+]5C)[n+]4C)[n+]2C)c1S(=O)(=O)O (tested in a mixture with another compound)	> 100 µM	> 100 µM	> 100 µM	> 100 µM	> 100 µM	–	> 100 µM	> 100 µM	> 100 µM	> 100 µM	–
c1ccc(P(CCP(c2ccccn2)c2ccccn2)c2ccccc2)cc1	37.8 µM	> 100 µM	> 100 µM	> 100 µM	> 100 µM	> 84.9 µM	–	66.3 µM	54 µM	> 100 µM	–
CC(=O)Oc1cc2c(c3ncccc13)OC(C)(C)C2	35 µM	28.7 µM	23.4 µM	30.7 µM	> 100 µM	31.3 µM	55 µM	44.6 µM	17.2 µM	> 100 µM	–
CN(C)CC1COC2Cc3ccccc3C1O2 (stereo not drawn)	> 100 µM	> 100 µM	> 100 µM	> 100 µM	> 100 µM	> 100 µM	> 100 µM	> 100 µM	75.7 µM and 94.5 µM	> 100 µM	–
CC(C)OP(=O)(OC(C)C)/C(C#N)=C/c1ccco1	> 100 µM	> 100 µM	> 100 µM	> 100 µM	> 100 µM	> 100 µM	> 100 µM	> 100 µM	> 100 µM	> 100 µM	–
Cc1nn(C(=O)c2ccncc2)c2c1C(c1ccccc1)SC(N)=N2 (stereo not drawn)	> 10 µM	> 10 µM	> 10 µM	> 10 µM	> 10 µM	> 10 µM	> 10 µM	> 10 µM	> 10 µM	> 10 µM	–
Cc1ccc2c(n1)C(=O)C=CC2=O	4.95 µM	30.7 µM	18 µM	46.2 µM	30.6 µM	36.2 µM	8.54 µM	32.3 µM	38.2 µM	29.2 µM	–
Cc1nc2c(nc1C)-c1c(c3c(n1C)C(=O)CCC3)C(=O)C2=O	3.46 µM	2.44 µM	> 100 µM	5.81 µM	2.85 µM	2.7 µM	0.646 µM	1.29 µM	2.14 µM	1.5 µM	–
C=C(C)C1CC/C(C)=C/CC[C@]2(C)O[C@H]2CC/C(COC(C)=O)=C\[C@@H]1O (stereo partly drawn)	> 50 µM	> 50 µM	> 50 µM	> 50 µM	> 50 µM	> 50 µM	> 50 µM	> 50 µM	15.2 µM	> 50 µM	0.625 µM
CC1(C)CC(=O)C2=C(C1)NC1=C(C(=O)CC(C)(C)C1)C2c1ccc([N+](=O)[O-])cc1	> 100 µM	> 100 µM	> 100 µM	> 100 µM	> 100 µM	> 100 µM	> 100 µM	> 100 µM	69.6 µM	> 100 µM	–
